What was measured:
[1] = system: RKO (RKOp27) human colon adenocarcinoma cells; experiment: Alamar Blue cell viability assay, anti-proliferative/cytotoxic activity on proliferating RKO subclones; format: cell-based; details: RKOp27, 72 h, RKO p27 uninduced (proliferating) cells, value = class bound given in Table A, read-out: −logIC50 RKO p27 uninduced (proliferating) (converted)
Outline: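 Alamar Blue fluorescence (ex 544, em 590 nm) after 72 h compound exposure at 37 °C, 5% CO2, normalised to untreated controls set at 100%. Cells were seeded at 5000 per well and dosed 24 h later with serial semi-logarithmic dilutions in 10% FCS DMEM, four replicates each. −log IC50 [mol/l] was derived from concentration-effect curves.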

[2] = system: subclones of RKO colon adenocarcinoma cells (RKOp27 or RKOp21) arrested by Ponasterone A; experiment: Alamar Blue cell viability assay, cell cycle specific mode of action: cells arrested by ectopic p27Kip1 induced by Ponasterone A versus proliferating cells; format: cell-based; details: Homo sapiens, RKO p27 induced (arrested) cells, 10 μM Ponasterone A, 72 hours, value = class bound given in Table A, read-out: −logIC50 RKO p27 induced (arrested) (converted)
Outline: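 Viability of proliferating versus Ponasterone A (10 μM)-arrested RKOp27/RKOp21 cells after 72 h compound exposure at 37° C, in quadruplicate. Read-out is Alamar Blue fluorescence (544/590 nm) normalised to untreated cells = 100%; values as −log IC50.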

| SMILES | IC50 [2] [nM] | IC50 [1] [nM] |
| --- | --- | --- |
| CC1CCCN1C(=O)OC1CCc2c(sc(NC(=O)/C=C/c3cccnc3)c2C#N)C1 (stereo not shown) [Example 93, 2-Methylpyrrolidine-1-carboxylic acid 3-cyano-2-((E)-3-pyridin-3-yl-allanoylamino)-4,5,6,7-tetrahydro-benzo[b]thiophen-6-yl ester] | ≥ 100000 | ≤ 501 |
| N#Cc1c(NC(=O)/C=C/c2cccnc2)sc2c1CC[C@H](COC(=O)N1CCC(O)CC1)C2 [Example 114a, 4-Hydroxy-piperidine-1 - carboxylic acid (S)-3-cyano-2-((E)-3-pyridin-3-yl-allanoylamino)-4,5,6,7-tetrahydro-benzo[b]thiophen-6-ylmethyl ester] | ≥ 100000 | ≤ 501 |
| COC(=O)OC1CCc2c(sc(NC(=O)CCc3cccnc3)c2C#N)C1 (stereo not shown) [Example 186, Carbonic acid 3-cyano-2-(3-pyridin-3-yl-propanoylamino)-4,5,6,7-tetrahydro-benzo[b]thiophen-6-yl ester methyl ester] | ≥ 100000 | 501 to 2000 |
| N#Cc1c(NC(=O)/C=C/c2cccnc2)sc2c1CCC(OC(=O)NC1CCOCC1)C2 (stereo not shown) [Example 26, (Tetrahydro-pyran-4-yl)-carbamic acid 3-cyano-2-((E)-3-pyridin-3-yl-allanoylamino)-4,5,6,7-tetrahydro-benzo[b]thiophen-6-yl ester] | ≥ 100000 | 501 to 2000 |
| N#Cc1c(NC(=O)/C=C/c2cccnc2)sc2c1CC[C@H](COC(=O)N1CCC[C@@H](O)C1)C2 [Example 87b, (R)-3-Hydroxy-piperidine-1-carboxylic acid (S)-3-cyano-2-((E)-3-pyridin-3-yl-allanoylamino)-4,5,6,7-tetrahydro-benzo[b]thiophen-6-ylmethyl ester] | ≥ 100000 | ≤ 501 |
| N#Cc1c(NC(=O)/C=C/c2cccnc2)sc2c1CCC(COC(=O)NC1COC1)C2 (stereo not shown) [Example 149, Oxetan-3-yl-carbamic acid 3-cyano-2-((E)-3-pyridin-3-yl-allanoylamino)-4,5,6,7-tetrahydro-benzo[b]thiophen-6-ylmethyl ester] | ≥ 100000 | 501 to 2000 |
| N#Cc1c(NC(=O)/C=C/c2cccnc2)sc2c1CCC(OC(=O)N1CCCO1)C2 (stereo not shown) [Example 119, Isoxazolidine-2-carboxylic acid 3-cyano-2-((E)-3-pyridin-3-yl-allanoylamino)-4,5,6,7-tetrahydro-benzo[b]thiophen-6-yl ester] | ≥ 100000 | ≤ 501 |
| Cc1ccncc1/C=C/C(=O)Nc1sc2c(c1C#N)CCC(COC(=O)N(C)C)C2 (stereo not shown) [Example 129, Dimethyl-carbamic acid 3-cyano-2-[(E)-3-(4-methyl-pyridin-3-yl)-allanoylamino]-4,5,6,7-tetrahydro-benzo[b]thiophen-6-ylmethyl ester] | ≥ 100000 | ≤ 501 |
| CC(C)N(C)C(=O)OCC1CCc2c(sc(NC(=O)/C=C/c3cccnc3)c2C#N)C1 (stereo not shown) [Example 97, Isopropyl-methyl-carbamic acid 3-cyano-2-((E)-3-pyridin-3-yl-allanoylamino)-4,5,6,7-tetrahydro-benzo[b]thiophen-6-ylmethyl ester] | ≥ 100000 | ≤ 501 |
| CCOc1ccccc1CCC(=O)Nc1sc2c(c1C#N)CCC(OC(=O)NCc1cncn1C)C2 (stereo not shown) [Example 167, (3-Methyl-3H-imidazol-4-ylmethyl)-carbamic acid 3-cyano-2-[3-(2-ethoxy-phenyl)-propanoylamino]-4,5,6,7-tetrahydro-benzo[b]thiophen-6-yl ester] | ≥ 10000 | ≤ 501 |
| CCN(C)C(=O)OCC1CCc2c(sc(NC(=O)/C=C/c3cccnc3)c2C#N)C1 (stereo not shown) [Example 85, Ethyl-methyl-carbamic acid 3-cyano-2-((E)-3-pyridin-3-yl-allanoylamino)-4,5,6,7-tetrahydro-benzo[b]thiophen-6-ylmethyl ester] | ≥ 100000 | ≤ 501 |
| COC[C@@H]1CCCN1C(=O)OCC1CCc2c(sc(NC(=O)/C=C/c3cccnc3)c2C#N)C1 (stereo partly drawn) [Example 90, 2-(S)-(Methoxymethyl) pyrrolidine-1-carboxylic acid 3-cyano-2-((E)-3-pyridin-3-yl-allanoylamino)-4,5,6,7-tetrahydro-benzo[b]thiophen-6-ylmethyl ester] | ≥ 100000 | ≤ 501 |
| N#Cc1c(NC(=O)/C=C/c2cccnc2)sc2c1CCC(COC(=O)N1CC(O)C1)C2 (stereo not shown) [Example 73, 3-Hydroxy-azetidine-1-carboxylic acid 3-cyano-2-((E)-3-pyridin-3-yl-allanoylamino)-4,5,6,7-tetrahydro-benzo[b]thiophen-6-ylmethyl ester] | ≥ 100000 | ≤ 501 |
| CCOc1ccccc1CCC(=O)Nc1sc2c(c1C#N)CCC(OC(=O)NCc1ncc[nH]1)C2 (stereo not shown) [Example 185, (1H-Imidazol-2-ylmethyl)-carbamic acid 3-cyano-2-[3-(2-ethoxy-phenyl)-propanoylamino]-4,5,6,7-tetrahydro-benzo[b]thiophen-6-yl ester] | ≥ 10000 | ≤ 501 |
| CCOc1ccccc1CCC(=O)Nc1sc2c(c1C#N)CCC(COC(=O)NCc1ccncc1)C2 (stereo not shown) [Example 181, Pyridin-4-ylmethyl-carbamic acid 3-cyano-2-[3-(2-ethoxy-phenyl)-propanoylamino]-4,5,6,7-tetrahydro-benzo[b]thiophen-6-ylmethyl ester] | ≥ 100000 | ≤ 501 |
| N#Cc1c(NC(=O)/C=C/c2cccnc2)sc2c1CCC(COC(=O)N1CCC(O)C1)C2 (stereo not shown) [Example 75, 3-Hydroxy-pyrrolidine-1-carboxylic acid 3-cyano-2-((E)-3-pyridin-3-yl-allanoylamino)-4,5,6,7-tetrahydro-benzo[b]thiophen-6-ylmethyl ester] | ≥ 100000 | ≤ 501 |

Second part, led by results:

| IC50 [2] [nM] | SMILES | IC50 [1] [nM] |
| --- | --- | --- |
| ≥ 50100 | CC(CC(=O)Nc1sc2c(c1C#N)CCC(COC(=O)NC(C)c1cccnc1)C2)c1cccnc1 (stereo not shown) [Example 284, (1-Pyridin-3-yl-ethyl)-carbamic acid 3-cyano-2-(3-pyridin-3-yl-butanoyl-amino)-4,5,6,7-tetrahydro-benzo[b]thiophen-6-ylmethyl ester] | 501 to 2000 |
| ≥ 10000 | CC(CC(=O)Nc1sc2c(c1C#N)CCC(COC(=O)N1CCOCC1)C2)c1ccccc1 (stereo not shown) [Example 378, Morpholine-4-carboxylic acid 3-cyano-2-[3-phenyl-butanoyl-amino]-4,5,6,7-tetrahydro-benzo[b] thiophen-6-ylmethyl ester] | ≤ 501 |
| ≥ 100000 | Cc1nocc1CNC(=O)OC1CCc2c(sc(NC(=O)CC(C)c3cccnc3)c2C#N)C1 (stereo not shown) [Example 355, (3-Methyl-isoxazol-4-ylmethyl)-carbamic acid 3-cyano-2-(3-pyridin-3-yl-butanoylamino)-4,5,6,7-tetrahydro-benzo[b] thiophen-6-yl ester] | 501 to 2000 |
| ≥ 50100 | COc1cccc(C(C)CC(=O)Nc2sc3c(c2C#N)CCC(COC(=O)NCc2ccccn2)C3)c1 (stereo not shown) [Example 324, Pyridin-2-ylmethyl-carbamic acid 3-cyano-2-[3-(3-methoxy-phenyl)-butanoylamino]-4,5,6,7-tetrahydro-benzo[b] thiophen-6-ylmethyl ester] | 501 to 2000 |
| ≥ 10000 | CC(CC(=O)Nc1sc2c(c1C#N)CCC(OC(=O)NCc1cccnc1)C2)c1ccccc1 (stereo not shown) [Example 288, Pyridin-3-ylmethyl-carbamicacid 3-cyano-2-(3-phenyl-butanoyl-amino)-4,5,6,7-tetrahydro-benzo[b]thiophen-6-yl ester] | ≤ 501 |
| ≥ 10000 | COc1cccc(C(C)CC(=O)Nc2sc3c(c2C#N)CCC(COC(=O)NCc2ccncc2)C3)c1 (stereo not shown) [Example 326, Pyridin-4-ylmethyl-carbamic acid 3-cyano-2-[3-(3-methoxy-phenyl)-butanoylamino]-4,5,6,7-tetrahydro-benzo[b]thiophen-6-ylmethyl ester] | 501 to 2000 |
| ≥ 100000 | Cc1nc(CNC(=O)OC2CCc3c(sc(NC(=O)CC(C)c4ccccc4)c3C#N)C2)cs1 (stereo not shown) [Example 351, (2-Methyl-thiazol-4-ylmethyl)-carbamic acid 3-cyano-2-(3-phenyl-butanoylamino)-4,5,6,7-tetrahydro-benzo[b] thiophen-6-yl ester] | ≤ 501 |
| ≥ 10000 | CC(CC(=O)Nc1sc2c(c1C#N)CCC(OC(=O)NCCc1cccnc1)C2)c1ccccc1 (stereo not shown) [Example 290, (2-Pyridin-3-yl-ethyl)-carbamic acid 3-cyano-2-(3-phenyl-butanoyl-amino)-4,5,6,7-tetrahydro-benzo[b]thiophen-6-yl ester] | ≤ 501 |
| ≥ 100000 | COc1cccc(C(C)CC(=O)Nc2sc3c(c2C#N)CCC(OC(=O)NCc2conc2C)C3)c1 (stereo not shown) [Example 361, (3-Methyl-isoxazol-4-ylmethyl)-carbamic acid 3-cyano-2-[3-(3-methoxy-phenyl)-butanoyl-amino]-4,5,6,7-tetrahydro-benzo[b] thiophen-6-yl ester] | ≤ 501 |
| ≥ 100000 | COc1cccc(CCC(=O)Nc2sc3c(c2C#N)CCC(OC(=O)NCC2CCCO2)C3)c1 (stereo not shown) [Example 225, (Tetrahydro-furan-2-ylmethyl)-carbamic acid 3-cyano-2-[3-(3-methoxy-phenyl)-propanoylamino]-4,5,6,7-tetrahydro-benzo[b]thiophen-6-yl ester] | 501 to 2000 |

— patent US20110044938A1 (NYCOMED GMBH, priority 2006, published 2011)
